Patent publication US20260130966A1, “NOVEL THERAPEUTICS FOR PARASITIC INFECTION” (UNIVERSITY OF SOUTH FLORIDA, priority 2022, published 2026)
Converted amounts (≈) assume the structure as drawn. “And” between values parts separate entries of the source, which are not always exact repeats. Equal values may be shown once. “Also recorded” adds a separate entry of the source. Read-outs that look alike come from different tables or passages of the source. Where a SMILES comes first, the peptide text is derived from it. [ ]: non-standard residue; d: D form. The star is where a group is joined. ξ: configuration not given here. Phe(Nα-CONH2) = NC(=O)N[C@@H](Cc1ccccc1)C(=O)*; NMeI = CC[C@H](C)[C@H](NC)C(=O)O; NMeξIle = CC[C@H](C)C(NC)C(=O)O; X1 = CN(/C=C\c1c[nH]c2ccccc12)*; NMeL = CN[C@@H](CC(C)C)C(=O)O; NMeV = CN[C@H](C(=O)O)C(C)C; NMeA = CN[C@@H](C)C(=O)O; For = O=C*

How the values were obtained:
Leishmania donovani = Leishmania donovani infected macrophage assay; assay type: cell-based
Experimental: (§1) The Leishmania donovani infected macrophage assay and cytotoxicity screen were conducted as previously described.

P. falciparum NF54 = assay: microbe, parasite or virus in culture; assay type: cell-based, Plasmodium falciparum
Experimental: (§2) For parasite suspension, P. falciparum malaria strains were grown under normal conditions as previously described by Trager and Jensen with some modifications.” Briefly, parasites were suspended in RPMI 1640 supplemented with 0.23% sodium bicarbonate, […] hypoxanthine and 0.5% albumax (CM), 4% packed washed red blood cells by volume and incubated in a continuous gas incubator set to normal conditions (5% O2, 5% CO2, […]). Parasites were prepared for drug susceptibility assay by highly synchronizing schizonts 16 h before experiment start by using a 70% percoll method. Ring stage parasites were then resuspended in culture with fresh CM containing 2% hematocrit and 0.5% parasitemia.
(§3) Antimalaria activity was assessed against reference strains of NF54, 3D7 and Dd2 using an adaptation of the sensitivity assay of Desjardins et al. using SybrGreen fluorescence as an assessment of parasite growth.^32 NF54 original isolate was obtained from a patient living near Schiphol Airport, Amsterdam and its clonal isolate 3D7 are generally considered to be drug sensitive, though 3D7 does convey resistance to sulfadoxine. Dd2 derived from the parent W2, is multi-drug-resistant line originating from the Indochina III/CDC isolate, which contain point mutations in pfcrt as well as amplifications in pfmdr1 and GTP cyclohydrolase. Briefly, compounds were diluted to 10 μg/mL and serially diluted along a microtiter plate before adding in 100 μL/well of the parasite suspension. Parasite growth was compared to controls incubated at 37° C. and normal culture conditions (5% O2, 5% CO2, 90% N2) for 72 h. Plates were frozen and thawed before adding a final 1× concentration of SybrGreen in lysis buffer and read on the CLARIOstar fluorescence plate reader (Ex/Em 484-15/528-15) following a 45 min incubation at room temperature. Drug EC50 values were calculated by interpolation of the probit transformation of the log(dose)-response curve using the MARS software provided by BMG.

P. falciparum Dd2 = assay: microbe, parasite or virus in culture; assay type: cell-based, Plasmodium falciparum
Experimental: as §2, §3

P. falciparum 3D7 = assay: microbe, parasite or virus in culture; assay type: cell-based, Plasmodium falciparum
Experimental: as §2, §3

[1] = tested on: murine J774 macrophage cells; assay: Cytotoxicity testing against murine J774 macrophage cells (CellTiter 96); assay type: cell-based
Experimental: The isolated compounds were each tested for cytotoxicity using mammalian J774A.1 cell lines (ATCC TIB-67™) in complete media; RPMI 1640 medium with phenol red containing L-glutamine and then supplemented with 10% fetal bovine serum (CM). Cells were seeded at 5×10^5 cell/mL and plated in a 96-well format with 100 μL/well fresh media on day 0 and were incubated overnight at 37° C., 5% CO2 for adherence. Following 24 h incubation, spent media was removed and 100 μL of fresh media with test compounds were serially diluted 1:2 with a starting concentration of 10 μg/mL was added to the cells and incubated for an additional 68 h before adding in 20 μL CellTiter 96® AQueous One Solution Cell Proliferation Assay reagent (Promega). Cells were incubated for an additional 4 h before reading absorbance (490) nm on the CLARIOstar plate reader.

[2] = tested on: ESKAPE panel of bacterial pathogens; assay: ESKAPE panel antibacterial screen; assay type: cell-based
C. difficile UK6 = assay: C. difficile MIC screening; assay type: cell-based, Clostridium difficile
J774.A1 macrophages = assay: Cytotoxicity screen against Leishmania host cell line; assay type: cell-based; conditions: toxicity to J774.A1 macrophages
Experimental: as §1

HEK293T = assay: MTT cytotoxicity, human kidney HEK293T cells; assay type: cell-based
Experimental: (§4) The cytotoxicity of the metabolites to human liver cells and kidney cells was determined using an MTT based-In Vitro Toxicology Assay Kit (Sigma-Aldrich, St. Louis, MO, USA) following the manufacturing instructions. The human kidney HEK293T cells and the human liver HEPGZ cells were used for the evaluation in this study. Both cell samples were maintained and suspended in Dulbecco's Modified Eagle Medium (DMEM with 4.5 g/L glucose, L-glutamine and sodium pyruvate, Corning, Manassas, VA, USA) containing 10% fetal bovine serum (Thermo Scientific) and 1% penicillin/streptomycin at 37° C. under 5% CO2 atmosphere. The cells were plated on a 96-well plate with approximately 5×10^3-1×10^4 cells in each well, and incubated at 37° C. overnight. […] After that, the liquid in each well of the plate was removed carefully and thoroughly, then the cells in the wells were treated with 100 μL of DMSO, and incubated at 37° C. for 15 m. […] Bio Tek Instruments, Inc. Winooski VT). Cells treated with vancomycin, a common option for treating CDI in clinical settings, were also included in the MTT tests as a control. Cell survival and the IC50 were calculated according to the method used in a previous publication: Survival of cells (%)=Drug-treated group OD540/control group OD540×100.

HepG2 = assay: MTT cytotoxicity, human liver HepG2 cells; assay type: cell-based
Experimental: as §4

[3] = tested on: liver stage of Plasmodium falciparum; conditions: previous investigation; cited from earlier work
[4] = tested on: Blood-Stage P. falciparum Strains; assay: Initial blood-stage screen against several P. falciparum strains; assay type: cell-based, Plasmodium falciparum
Experimental: as §2, §3

[5] = cytotoxicity, murine J774 macrophage cells, read-out: EC50

Compound | IC50 (P. falciparum NF54; NF54) [µM] | IC50 (P. falciparum Dd2; Dd2) [µM] | IC50 (P. falciparum 3D7; 3D7) [µM] | EC50 (μg/mL) [1] [µg/mL] | EC50 [1, 5] [µM] | also measured
4,12-Bis(acetyl)alcyopterosin O [Compound C8] | – | – | – | – | – | IC50 (Leishmania donovani): 1.2 µM
CCN(CC)CCCC(C)Nc1ccnc2cc(Cl)ccc12 (stereo not shown) [Chloroquine, reference compound] | – | – | – | – | – | IC50 (P. falciparum NF54; Plasmodium falciparum, NF54, read-out: IC50 Values against Blood-Stage P. falciparum Strains: NF54): 0.03 µM; IC50 (P. falciparum Dd2; Plasmodium falciparum, DD2, read-out: IC50 Values against Blood-Stage P. falciparum Strains: Dd2): 1.28 µM; IC50 (P. falciparum 3D7; Plasmodium falciparum, 3D7, read-out: IC50 Values against Blood-Stage P. falciparum Strains: 3D7): 0.03 µM; EC50 ([1]; Mus musculus, J774): 16.3 µg/mL and 51 µM
Cc1cc2c(c3c1[C@@H](CO)OC3=O)CC(C)(C)C2 [Compound C3, alcyopterosin V] | – | – | – | – | – | activity against the ESKAPE panel [2]: inactive; activity against Clostridium difficile (C. difficile UK6): potent activity; MIC (C. difficile UK6; C. difficile): 8.1 µM (≈ 2 µg/mL); IC50 (J774.A1 macrophages): 110 µM; CC50 (HEK293T): 220 µM; CC50 (HepG2): 288 µM
Cc1cc2c(c3c1[C@H](CO[N+](=O)[O-])OC3=O)CC(C)(C)C2 [Compound C4, alcyopterosin E] | – | – | – | – | – | activity against the ESKAPE panel [2]: inactive; activity against Clostridium difficile (C. difficile UK6): potent activity; IC50 (J774.A1 macrophages): 62 µM; CC50 (HEK293T): 570 µM; CC50 (HepG2): 331 µM
CC(=O)O[C@@H]1[C@H](OC(C)=O)[C@H]([C@H](C)CCCC(C)C)[C@@]2(C)C[C@@H](OC(C)=O)[C@H]3[C@@H](C[C@@H](O)[C@H]4CC=CC(=O)[C@]34C)[C@H]12 [Compound C5, alcyosterone] | – | – | – | – | – | activity against the ESKAPE panel [2]: inactive; IC50 (Leishmania donovani; Macrophage): 1.5 µM
Cc1cc2c(c(C)c1CCO[N+](=O)[O-])CC(C)(C)C2=O [Compound C6, alcyopterosin C] | – | – | – | – | – | IC50 (Leishmania donovani): 13 µM
Cc1cc2c(c3c1[C@@H](CCl)OC3=O)CC(C)(C)[C@@H]2O [Compound C9, alcyopterosin L] | – | – | – | – | – | IC50 (Leishmania donovani): 2.4 µM
CC[C@H](C)[C@@H](C(=O)N(C)/C=C\c1c[nH]c2ccccc12)N(C)C(=O)[C@H]([C@@H](C)CC)N(C)C(=O)[C@H](C)N(C)C(=O)[C@H](C(C)C)N(C)C(=O)[C@H](Cc1ccccc1)NC(C)=O [Compound P1, friomaramide A] (Ac-F[NMeV][NMeA][NMeI][NMeI]-X1) | – | – | – | – | – | blocking of liver stage parasite development [3]: comparable to the known drug primaquine
CC[C@H](C)[C@@H](C(=O)N(C)/C=C\c1c[nH]c2ccccc12)N(C)C(=O)[C@H](C(C)C)N(C)C(=O)[C@H](C(C)C)N(C)C(=O)[C@H](CC(C)C)N(C)C(=O)[C@@H]1CCCN1C(=O)[C@H](Cc1ccccc1)NC(=O)[C@H](Cc1ccccc1)NC(C)=O [Compound P2, friomaramide B] (Ac-FFP[NMeL][NMeV][NMeV][NMeI]-X1) | 3.93 | 3.3 | 8.65 | 26.7 (≈ 24.6 µM) | – | blood-stage anti-malarial activity [4]: modest activity; EC50 [1]: 24.6 µM
CC[C@H](C)[C@@H](C(N)=O)N(C)C(=O)[C@H](C(C)C)N(C)C(=O)[C@H](CC(C)C)N(C)C(=O)[C@H](Cc1ccccc1)N(C)C(=O)[C@H](Cc1ccccc1)NC=O [Compound P3, shagamide A] | 2.61 | 1.72 | 2.1 | >100 | > 100 | activity against the 3D7 strain (P. falciparum 3D7; blood stage, strain 3D7): comparable activity
CC[C@H](C)C(C(=O)N(C)[C@H](C(=O)NC)[C@@H](C)CC)N(C)C(=O)[C@H](C(C)C)N(C)C(=O)[C@H](C)N(C)C(=O)[C@H](C(C)C)N(C)C(=O)[C@H](C(C)C)N(C)C(=O)[C@@H](NC=O)C(C)C (stereo partly shown) [Compound P4, shagamide B] (For-V[NMeV][NMeV][NMeA][NMeV][NMeξIle][NMeI]-NHMe) | > 10 | 4.37 | > 10 | >100 | > 100 | blood-stage anti-malarial activity [4]: did not show significant activity; also recorded: inactive
CNC(=O)[C@H](C(C)C)N(C)C(=O)[C@H](C(C)C)N(C)C(=O)[C@H](C(C)C)N(C)C(=O)[C@H](C)N(C)C(=O)[C@H](C)N(C)C(=O)[C@H](CC(C)C)N(C)C(=O)[C@H](C(C)C)N(C)C(=O)[C@H](Cc1ccccc1)NC=O [Compound P5, shagamide C] (For-F[NMeV][NMeL][NMeA][NMeA][NMeV][NMeV][NMeV]-NHMe) | 3.73 | 1.07 | 2.52 | >100 | > 100 | inhibition of strain 3D7 (P. falciparum 3D7; blood stage, strain 3D7): 2.52 µg/mL
CNC(=O)[C@H](C(C)C)N(C)C(=O)[C@H](C(C)C)N(C)C(=O)[C@H](C(C)C)N(C)C(=O)[C@H](C)N(C)C(=O)[C@H](C)N(C)C(=O)[C@H](CC(C)C)N(C)C(=O)[C@H](C(C)C)N(C)C(=O)[C@H](Cc1ccccc1)NC(N)=O [Compound P6, shagamide D] ({Phe(Nα-CONH2)}-[NMeV][NMeL][NMeA][NMeA][NMeV][NMeV][NMeV]-NHMe) | 3.05 | 2.02 | > 10 | >100 | > 100 | activity against the 3D7 strain (P. falciparum 3D7; blood stage, strain 3D7): inactive
CC[C@H](C)[C@@H](C(=O)NC)N(C)C(=O)[C@H](C)N(C)C(=O)[C@H](C(C)C)N(C)C(=O)[C@H](C(C)C)N(C)C(=O)[C@H](C)N(C)C(=O)[C@H](C(C)C)N(C)C(=O)[C@H](C(C)C)N(C)C(=O)[C@H](C)N(C)C(=O)[C@H](C)NC(C)=O [Compound P7, shagamide E] (Ac-A[NMeA][NMeV][NMeV][NMeA][NMeV][NMeV][NMeA][NMeI]-NHMe) | > 10 | > 10 | > 10 | >100 | > 100 | blood-stage anti-malarial activity [4]: did not show significant activity
CC[C@H](C)[C@@H](C(=O)N(C)[C@@H](C)C(=O)N(C)[C@H](C(N)=O)C(C)C)N(C)C(=O)[C@H]([C@@H](C)CC)N(C)C(=O)[C@H](C)N(C)C(=O)[C@H](C(C)C)N(C)C(=O)[C@H](C)N(C)C(=O)[C@@H](NC(C)=O)C(C)C [Compound P8, shagamide F] (Ac-V[NMeA][NMeV][NMeA][NMeI][NMeI][NMeA][NMeV]-NH2) | > 10 | > 10 | > 10 | >100 | > 100 | blood-stage anti-malarial activity [4]: did not show significant activity
CN[C@H](CC(C)C)C(=O)N[C@H]1C(=O)N[C@@H](CC(N)=O)C(=O)N[C@H]2C(=O)N[C@H]3C(=O)N[C@H](C(=O)N[C@H](C(=O)O)c4cc(O)cc(O)c4-c4cc3ccc4O)[C@H](O)c3ccc(c(Cl)c3)Oc3cc2cc(c3O[C@@H]2O[C@H](CO)[C@@H](O)[C@H](O)[C@H]2O[C@H]2C[C@](C)(N)[C@H](O)[C@H](C)O2)Oc2ccc(cc2Cl)[C@H]1O [Vancomycin, reference compound] | – | – | – | – | – | MIC (C. difficile UK6; Clostridioides difficile, UK6): 0.34 µM (≈ 0.493 µg/mL); toxicity to host cells (HEK293T; HEK293T, same concentrations alcyopterosins were assayed): non-toxic; toxicity to host cells (HepG2; HepG2, same concentrations alcyopterosins were assayed): non-toxic
CCCCCCCCCCCCCCCCOP(=O)([O-])OCC[N+](C)(C)C [miltefosine, reference compound] | – | – | – | – | – | IC50 (Leishmania donovani; Macrophage): 6.2 µM
